Target: T1, IDO1 (Homo sapiens, UniProt P14902)
T1 construct: HeLa cells were treated with a test compound in the presence of IFNγ, which induces IDO1 expression; host or cells: H1-HeLa cells, IDO1 induced with IFNγ
Assay: Cell-based (HeLa) assay for measurement of IDO1 inhibition (kynurenine levels in supernatant after IFNγ induction)
Conditions: HeLa cells, geometric mean of a minimum of four determinations
Method in brief: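 IDO1 activity is read as kynurenine released into the medium, detected with Ehrlich's reagent (p-dimethylaminobenzaldehyde) at 480 nm after TCA treatment. HeLa cells were exposed 48 h to compounds in 0.5% DMSO alongside IFNγ induction. Values normalized to no-IFNγ and IFNγ controls; four-parameter EC50 given as geometric mean of ≥4 determinations.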

[1] = IFNγ-induced IDO1, kynurenine in supernatant, 48 hour incubation
[2] = IFNγ-induced IDO1, kynurenine in supernatant after 48 hour incubation

T1 sequence (P14902 whole entry): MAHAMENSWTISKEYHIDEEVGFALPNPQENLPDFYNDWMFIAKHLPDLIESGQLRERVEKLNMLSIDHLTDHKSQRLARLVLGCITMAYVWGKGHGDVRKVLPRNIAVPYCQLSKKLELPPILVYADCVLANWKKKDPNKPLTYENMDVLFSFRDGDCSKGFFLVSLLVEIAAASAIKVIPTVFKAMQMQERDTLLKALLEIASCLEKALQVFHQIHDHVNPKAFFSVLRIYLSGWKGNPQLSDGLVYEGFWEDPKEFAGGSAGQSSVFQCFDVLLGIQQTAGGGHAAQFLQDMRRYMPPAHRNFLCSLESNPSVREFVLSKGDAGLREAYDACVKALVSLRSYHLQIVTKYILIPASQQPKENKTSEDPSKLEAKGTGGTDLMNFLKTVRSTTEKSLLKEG

SMILES | EC50 [1] [nM] | EC50 [2] [nM]
CCNCc1nc2c(F)ccc(/C(=N/O)Nc3ccc(F)c(Cl)c3)c2[nH]1 [Example 287, N-(3-chloro-4-fluorophenyl)-2-((ethylamino)methyl)-4-fluoro-N′-hydroxy-1H-benzo[d]imidazole-7-carboximidamide] |  | 1670
CN(C)CC(O)c1nc2nccc(/C(=N/O)Nc3ccc(F)c(Cl)c3)c2[nH]1 (stereo not shown) [Example 195, N-(3-Chloro-4-fluorophenyl)-2-(2-(dimethylamino)-1-hydroxyethyl)-N′-hydroxy-1H-imidazo[4,5-b]pyridine-7-carboximidamide] |  | 1160
O/N=C(\Nc1ccc(F)c(C(F)(F)F)c1)c1ccnc2[nH]c(CCl)nc12 [Example 170, 2-(Chloromethyl)-N-(4-fluoro-3-(trifluoromethyl)phenyl)-N′-hydroxy-3H-imidazo[4,5-b]pyridine-7-carboximidamide] |  | 1940
O/N=C(\Nc1ccc(F)c(Cl)c1)c1ccc(F)c2nc[nH]c12 [Example 5, N-(3-Chloro-4-fluorophenyl)-4-fluoro-N′-hydroxy-1H-benzo[d]imidazole-7-carboximidamide] |  | 542
O/N=C(\Nc1ccc(F)c(Cl)c1)c1ccnc2nc(-c3cccnc3)[nH]c12 [Example 147, N-(3-Chloro-4-fluorophenyl)-N′-hydroxy-2-(pyridin-3-yl)-1H-imidazo[4,5-b]pyridine-7-carboximidamide] |  | 1930
CCc1cccc(N/C(=N\O)c2ccnc3nc[nH]c23)c1 [Example 96, N-(3-Ethylphenyl)-N′-hydroxy-1H-imidazo[4,5-b]pyridine-7-carboximidamide] |  | 803
COc1ccccc1CNCc1nc2nccc(/C(=N/O)Nc3ccc(F)c(Cl)c3)c2[nH]1 [Example 123, N-(3-Chloro-4-fluorophenyl)-N′-hydroxy-2-(((2-methoxybenzyl)amino)methyl)-1H-imidazo[4,5-b]pyridine-7-carboximidamide] |  | 1910
O/N=C(\Nc1cccc(Cl)c1)c1ccnc2nc[nH]c12 [Example 82, N-(3-Chlorophenyl)-N′-hydroxy-1H-imidazo[4,5-b]pyridine-7-carboximidamide] |  | 160
O/N=C(\Nc1cccc(OC(F)(F)F)c1)c1ccnc2nc[nH]c12 [Example 99, N′-Hydroxy-N-(3-(trifluoromethoxy)phenyl)-1H-imidazo[4,5-b]pyridine-7-carboximidamide] |  | 602
CCN(CC)CCc1nc2c(F)c(F)cc(/C(=N/O)Nc3ccc(F)c(Cl)c3)c2[nH]1 [Example 58, N-(3-Chloro-4-fluorophenyl)-2-(2-(diethylamino)ethyl)-4,5-difluoro-N′-hydroxy-1H-benzo[d]imidazole-7-carboximidamide] |  | 786
CN(C)CCNc1nc2c(F)c(F)cc(/C(=N/O)Nc3ccc(F)c(Br)c3)c2[nH]1 [Example 432, N-(3-bromo-4-fluorophenyl)-2-((2-(dimethylamino)ethyl)amino)-4,5-difluoro-N′-hydroxy-1H-benzo[d]imidazole-7-carboximidamide] | 253 | 
O/N=C(\Nc1ccc(F)c(Cl)c1)c1ccnc2nc(C(O)C3CC3)[nH]c12 (stereo not shown) [Example 174, N-(3-Chloro-4-fluorophenyl)-2-(cyclopropyl(hydroxy)methyl)-N′-hydroxy-1H-imidazo[4,5-b]pyridine-7-carboximidamide] |  | 7090
CN(C)CCc1nc2c(/C(=N/O)Nc3ccc(F)c(Cl)c3)cc(F)c(F)c2[nH]1 [Example 53, N-(3-Chloro-4-fluorophenyl)-2-(2-(dimethylamino)ethyl)-6,7-difluoro-N′-hydroxy-1H-benzo[d]imidazole-4-carboximidamide] |  | 916
NCCc1nc2c(F)c(F)cc(/C(=N/O)Nc3ccc(F)c(Cl)c3)c2[nH]1 [Example 211, 2-(2-aminoethyl)-N-(3-chloro-4-fluorophenyl)-4,5-difluoro-N′-hydroxy-1H-benzo[d]imidazole-7-carboximidamide] |  | > 10000

Now from value to compound:

EC50 [1] [nM] | EC50 [2] [nM] | SMILES
> 10000 |  | CS(=O)(=O)NCCNc1nc2c(F)c(F)cc(/C(=N/O)Nc3ccc(F)c(Cl)c3)c2[nH]1 [Example 335, N-(3-chloro-4-fluorophenyl)-4,5-difluoro-N′-hydroxy-2-((2-(methylsulfonamido)ethyl)amino)-1H-benzo[d]imidazole-7-carboximidamide]
2020 |  | CN1CCCCC1CCNc1nc2c(F)c(F)cc(/C(=N/O)Nc3ccc(F)c(Cl)c3)c2[nH]1 (stereo not shown) [Example 355, N-(3-chloro-4-fluorophenyl)-4,5-difluoro-N′-hydroxy-2-((2-(1-methylpiperidin-2-yl)ethyl)amino)-1H-benzo[d]imidazole-7-carboximidamide]
 | > 10000 | CN1CCOCC1CNc1nc2nccc(/C(=N/O)Nc3ccc(F)c(Cl)c3)c2[nH]1 (stereo not shown) [Example 282, N-(3-chloro-4-fluorophenyl)-N′-hydroxy-2-(((4-methylmorpholin-3-yl)methyl)amino)-1H-imidazo[4,5-b]pyridine-7-carboximidamide]
 | 371 | O/N=C(\Nc1cc(Br)c(F)cc1F)c1ccnc2nc[nH]c12 [Example 61, N-(5-Bromo-2,4-difluorophenyl)-N′-hydroxy-1H-imidazo[4,5-b]pyridine-7-carboximidamide]
 | 1780 | NCCc1nc2nccc(/C(=N/O)Nc3ccc(F)c(Cl)c3)c2[nH]1 [Example 189, 2-(2-Aminoethyl)-N-(3-chloro-4-fluorophenyl)-N′-hydroxy-1H-imidazo[4,5-b]pyridine-7-carboximidamide]
 | 3030 | O/N=C(\Nc1ccc(Cl)c2ccccc12)c1ccnc2nc[nH]c12 [Example 105, N-(4-Chloronaphthalen-1-yl)-N′-hydroxy-1H-imidazo[4,5-b]pyridine-7-carboximidamide]
 | 593 | CN(C)CCc1nc2nccc(/C(=N/O)Nc3ccc(F)c(Cl)c3)c2[nH]1 [Example 184, N-(3-Chloro-4-fluorophenyl)-2-(2-(dimethylamino)ethyl)-N′-hydroxy-1H-imidazo[4,5-b]pyridine-7-carboximidamide]
 | 1290 | CNCc1nc2c(F)ccc(/C(=N/O)Nc3ccc(F)c(Cl)c3)c2[nH]1 [Example 290, N-(3-chloro-4-fluorophenyl)-4-fluoro-N′-hydroxy-2-((methylamino)methyl)-1H-benzo[d]imidazole-7-carboximidamide]
319 |  | CN(C)CCNc1nc2c(F)ccc(/C(=N/O)Nc3cccc(Br)c3)c2[nH]1 [Example 383, N-(3-bromophenyl)-2-((2-(dimethylamino)ethyl)amino)-4-fluoro-N′-hydroxy-1H-benzo[d]imidazole-7-carboximidamide]
 | 2460 | O/N=C(\Nc1ccc(F)c(Cl)c1)c1ccc(OC(F)(F)F)c2nc[nH]c12 [Example 2, N-(3-Chloro-4-fluorophenyl)-N′-hydroxy-4-(trifluoromethoxy)-1H-benzo[d]imidazole-7-carboximidamide]
 | 1480 | O/N=C(\Nc1ccc2occc2c1)c1ccnc2nc[nH]c12 [Example 70, N-(benzofuran-5-yl)-N′-hydroxy-1H-imidazo[4,5-b]pyridine-7-carboximidamide]
2120 |  | OCCN(CCNc1nc2nccc(/C(=N/O)Nc3ccc(F)c(Cl)c3)c2[nH]1)C1CC1 [Example 407, N-(3-chloro-4-fluorophenyl)-2-((2-(cyclopropyl(2-hydroxyethyl)amino)ethyl)amino)-N′-hydroxy-1H-imidazo[4,5-b]pyridine-7-carboximidamide]
 | 1070 | CN1CCCC(Nc2nc3nccc(/C(=N/O)Nc4ccc(F)c(Cl)c4)c3[nH]2)C1 (stereo not shown) [Example 278, N-(3-chloro-4-fluorophenyl)-N′-hydroxy-2-((1-methylpiperidin-3-yl)amino)-1H-imidazo[4,5-b]pyridine-7-carboximidamide]
 | 562 | CN(C)CCc1nc2c(/C(=N/O)Nc3cccc(Cl)c3)cc(F)c(F)c2[nH]1 [Example 56, N-(3-Chlorophenyl)-2-(2-(dimethylamino)ethyl)-6,7-difluoro-N′-hydroxy-1H-benzo[d]imidazole-4-carboximidamide]
1480 |  | CN(CCc1nc2nccc(/C(=N/O)Nc3ccc(F)c(Cl)c3)c2[nH]1)CC1CCCCC1 [Example 391, N-(3-chloro-4-fluorophenyl)-2-(2-((cyclohexylmethyl)(methyl)amino)ethyl)-N′-hydroxy-1H-imidazo[4,5-b]pyridine-7-carboximidamide]
 | > 10000 | CS(=O)(=O)NCCc1nc2nccc(/C(=N/O)Nc3ccc(F)c(Cl)c3)c2[nH]1 [Example 266, N-(3-chloro-4-fluorophenyl)-N′-hydroxy-2-(2-(methylsulfonamido)ethyl)-1H-imidazo[4,5-b]pyridine-7-carboximidamide]
290 |  | CN(C)CCNc1nc2c(F)ccc(/C(=N/O)Nc3cccc(Cl)c3)c2[nH]1 [Example 384, N-(3-chlorophenyl)-2-((2-(dimethylamino)ethyl)amino)-4-fluoro-N′-hydroxy-1H-benzo[d]imidazole-7-carboximidamide]
 | 1930 | O/N=C(\Nc1ccc2ccccc2c1)c1ccnc2nc[nH]c12 [Example 102, N′-hydroxy-N-(naphthalen-2-yl)-1H-imidazo[4,5-b]pyridine-7-carboximidamide]
 | 705 | CC(C)Nc1nc2nccc(/C(=N/O)Nc3ccc(F)c(Cl)c3)c2[nH]1 [Example 165, N-(3-Chloro-4-fluorophenyl)-N′-hydroxy-2-(isopropylamino)-1H-imidazo[4,5-b]pyridine-7-carboximidamide]
 | 2090 | CN1CCCCC1CNc1nc2nccc(/C(=N/O)Nc3ccc(F)c(Cl)c3)c2[nH]1 (stereo not shown) [Example 202, N-(3-Chloro-4-fluorophenyl)-N′-hydroxy-2-[(1-methylpiperidin-2-yl)methylamino]-1H-imidazo[4,5-b]pyridine-7-carboximidamide]
